# Measured values taken from patent publication US11759442B2, “Use of short chain fatty acids for the treatment and prevention of diseases and disorders” (Temple University-Of The Commonwealth System of Higher …, priority 2017, dated 2023).
# pEC50: −log10 of the molar value.
# Columns and labels:
# [1] = test system: psoriasis skin lesions
# [2] = biological target: GPR-109a receptor (Homo sapiens, UniProt Q8TDS4); conditions: read-out: EC50 of GPR-109a receptor activation; cited from earlier work
# [3] = test system: IL-6; conditions: cited from earlier work
# [4] = test system: ileum inflammatory cytokines; conditions: neonatal piglets, oral ~10 ml of 150 mmol/L; cited from earlier work
# Chain of GPR-109a receptor (Q8TDS4 whole entry): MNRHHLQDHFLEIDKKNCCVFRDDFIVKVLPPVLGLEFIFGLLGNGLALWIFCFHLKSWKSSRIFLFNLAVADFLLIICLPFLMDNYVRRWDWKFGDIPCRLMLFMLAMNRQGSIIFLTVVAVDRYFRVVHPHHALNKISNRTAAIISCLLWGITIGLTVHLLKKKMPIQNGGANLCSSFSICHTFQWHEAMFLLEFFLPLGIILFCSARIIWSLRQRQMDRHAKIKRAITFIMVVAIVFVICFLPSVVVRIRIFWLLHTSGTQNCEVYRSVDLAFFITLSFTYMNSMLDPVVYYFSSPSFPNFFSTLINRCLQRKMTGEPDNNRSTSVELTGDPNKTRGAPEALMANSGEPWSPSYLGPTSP
compound,measurement,setting,value
CCCC(=O)O [butyrate],re-emergence of psoriasis on left elbow after ceasing the regimen,"[1]; FIG. 2 patient, one 600 mg pill 3 times daily for 16 days, then stopped",20 days
same,time until psoriasis came back after stopping the regimen,[1]; FIG. 5 fourth patient,20 to 25 days
same,side effects during treatment,"[1]; FIG. 5 fourth patient, treatment for long period of time",no side effects were noted
same,pEC50,[2],~2.82
CCC(=O)O [propionate],effect on IL-6,[3],inhibit IL-6
CCCC(=O)[O-].[Na+] [sodium butyrate],effect on ileum inflammatory cytokines,[4],modulated the ileum inflammatory cytokines
